# Assay results reported in US20230277569A1, “Compositions and Methods for Treating, Ameliorating and/or Preventing Cancer and Kits for the Same” (priority 2022, published 2023).
# Entries after “also recorded” stand apart in the source; their conditions may differ. Where two headings read alike, the source gives them in different places.
# Tests used:
# Sprague-Dawley rats = test: Toxicity and toxicokinetics in rats, IV twice weekly for 29 d; format: in vivo; settings: for reduction in mean body weights: male rats
# Experimental: (§1) Ninety-six male and female Sprague-Dawley rats (6-7 weeks old) were received from Charles River Laboratories, (Raleigh, N.C.) and catheterized via a femoral vein prior to arrival. Animals were acclimated in individual stainless-steel cages with access to water and Certified Rodent Diet #2014C (Envigo RMS) ad libitum for 6 d prior to study initiation. Environmental controls were set to maintain a temperature range of 20 to 26° C., a relative humidity range of 30 to 70%, eight or greater air changes/h, and a 12-h light/dark cycle. Animals were infused with sterile isotonic (0.9%) saline for a minimum of 4 d (0.20 mL/h for males or 0.15 mL/h for females) during the predose phase. At initiation of dosing, animals were 8 to 9 weeks old, and body weights ranged from 283 to 341 g for males and 188 to 238 g for females. Gamitrinib formulated as indicated above was administered by IV infusion on d […], 8, 11, 15, 18, 22, 25, and 29 of the dosing phase at 1, 10, 25 mg/kg/dose and dose volume of 5 mL/kg. The vehicle control administered with the same schedule contained 2.5% DMSO, 0.125% polysorbate 80, 0.031% lecithin, 1.25% sucrose and 4.375% dextrose. Animals were checked twice daily throughout the duration of the study for mortality, abnormalities, and signs of pain or distress. Detailed observations were conducted for each animal up to two times during the predose phase and for each toxicity animal prior to dosing on d 1, 8, 15, 22, and 29 of the dosing phase and on d 1, 7, and 14 of the recovery phase. Blood samples were collected on d. 1, 4 and 29 of the dosing phase 5 min, 1 h and 24 h post-dose, maintained on chilled cryoracks and centrifuged within 1 h of collection. Tissue samples harvested from each animal were embedded in paraffin, sectioned, and slides were prepared and stained with hematoxylin and eosin.
# [1] = as above; format: in vivo, Sprague-Dawley rats; settings: Sprague-Dawley, rat; for Cmax / AUC(0-t): plasma, iv, rats; for AUC(0-t): read-out: AUC0-24
# Experimental: as §1
# Cav1.2 = Cav1.2 (Homo sapiens, UniProt Q13936); test: Ion channel screening, Cav1.2; format: cell-based; settings: n=34, pulse 2, read-out: inhibition of Cav1.2 currents
# From the text: (§2) The parameters measured were the maximum inward current evoked on stepping to −20 mV from the 1st and 26th pulse. Human Kv4.3/KChIP2 currents were evoked from a holding potential of −80 mV by a series of four 500 msec pulses to 0 mV using a 1000 msec interval between pulses. The parameter measured was the amplitude of the outward current 50 msec after the onset of the 4th voltage step to 0 mV. Human Cav1.2 currents were evoked by 2 pulses to −10 mV from a holding potential of −100 mV. The parameters measured were the maximum inward currents evoked on stepping to −10 mV from the holding potential of −100 mV for the 1st and 2nd pulse. Human Kv1.5 currents were evoked by a single pulse from a holding potential of −80 mV to a potential of 0 mV for 4 sec before returning to −80 mV. The parameters measured were the maximum amplitude of outward currents evoked at the beginning of the voltage pulse and at the end of the voltage step from −80 mV to 0 mV. Human KCNQ1/minK currents were evoked by a single pulse delivered from a holding potential of −80 mV to +60 mV for 4 sec before returning to −80 mV. The parameter measured was the maximum outward current evoked on stepping to +60 mV from the holding potential of −80 mV. hERG currents were evoked by a three-pulse protocol where voltage was first stepped to +40 mV for two sec from a holding potential of −80 mV to inactivate hERG channels. […]
# Nav1.5 = Nav1.5 (Homo sapiens, UniProt Q14524); test: Ion channel screening, Nav1.5; format: cell-based; settings: n=3, pulse 26, read-out: inhibition of Nav1.5 currents
# From the text: as §2
# [2] = Phase I, cytochrome P450-mediated human liver microsome metabolism
# [3] = tested on: colon adenocarcinoma cell lines; settings: colon adenocarcinoma lines of NCI 60 screen; read-out: IC50 anticancer activity; cited from earlier work
# [4] = 1 mg/kg/dose (NOAEL), d 29 of dosing
# Cav1.2, sequence (Q13936 whole entry): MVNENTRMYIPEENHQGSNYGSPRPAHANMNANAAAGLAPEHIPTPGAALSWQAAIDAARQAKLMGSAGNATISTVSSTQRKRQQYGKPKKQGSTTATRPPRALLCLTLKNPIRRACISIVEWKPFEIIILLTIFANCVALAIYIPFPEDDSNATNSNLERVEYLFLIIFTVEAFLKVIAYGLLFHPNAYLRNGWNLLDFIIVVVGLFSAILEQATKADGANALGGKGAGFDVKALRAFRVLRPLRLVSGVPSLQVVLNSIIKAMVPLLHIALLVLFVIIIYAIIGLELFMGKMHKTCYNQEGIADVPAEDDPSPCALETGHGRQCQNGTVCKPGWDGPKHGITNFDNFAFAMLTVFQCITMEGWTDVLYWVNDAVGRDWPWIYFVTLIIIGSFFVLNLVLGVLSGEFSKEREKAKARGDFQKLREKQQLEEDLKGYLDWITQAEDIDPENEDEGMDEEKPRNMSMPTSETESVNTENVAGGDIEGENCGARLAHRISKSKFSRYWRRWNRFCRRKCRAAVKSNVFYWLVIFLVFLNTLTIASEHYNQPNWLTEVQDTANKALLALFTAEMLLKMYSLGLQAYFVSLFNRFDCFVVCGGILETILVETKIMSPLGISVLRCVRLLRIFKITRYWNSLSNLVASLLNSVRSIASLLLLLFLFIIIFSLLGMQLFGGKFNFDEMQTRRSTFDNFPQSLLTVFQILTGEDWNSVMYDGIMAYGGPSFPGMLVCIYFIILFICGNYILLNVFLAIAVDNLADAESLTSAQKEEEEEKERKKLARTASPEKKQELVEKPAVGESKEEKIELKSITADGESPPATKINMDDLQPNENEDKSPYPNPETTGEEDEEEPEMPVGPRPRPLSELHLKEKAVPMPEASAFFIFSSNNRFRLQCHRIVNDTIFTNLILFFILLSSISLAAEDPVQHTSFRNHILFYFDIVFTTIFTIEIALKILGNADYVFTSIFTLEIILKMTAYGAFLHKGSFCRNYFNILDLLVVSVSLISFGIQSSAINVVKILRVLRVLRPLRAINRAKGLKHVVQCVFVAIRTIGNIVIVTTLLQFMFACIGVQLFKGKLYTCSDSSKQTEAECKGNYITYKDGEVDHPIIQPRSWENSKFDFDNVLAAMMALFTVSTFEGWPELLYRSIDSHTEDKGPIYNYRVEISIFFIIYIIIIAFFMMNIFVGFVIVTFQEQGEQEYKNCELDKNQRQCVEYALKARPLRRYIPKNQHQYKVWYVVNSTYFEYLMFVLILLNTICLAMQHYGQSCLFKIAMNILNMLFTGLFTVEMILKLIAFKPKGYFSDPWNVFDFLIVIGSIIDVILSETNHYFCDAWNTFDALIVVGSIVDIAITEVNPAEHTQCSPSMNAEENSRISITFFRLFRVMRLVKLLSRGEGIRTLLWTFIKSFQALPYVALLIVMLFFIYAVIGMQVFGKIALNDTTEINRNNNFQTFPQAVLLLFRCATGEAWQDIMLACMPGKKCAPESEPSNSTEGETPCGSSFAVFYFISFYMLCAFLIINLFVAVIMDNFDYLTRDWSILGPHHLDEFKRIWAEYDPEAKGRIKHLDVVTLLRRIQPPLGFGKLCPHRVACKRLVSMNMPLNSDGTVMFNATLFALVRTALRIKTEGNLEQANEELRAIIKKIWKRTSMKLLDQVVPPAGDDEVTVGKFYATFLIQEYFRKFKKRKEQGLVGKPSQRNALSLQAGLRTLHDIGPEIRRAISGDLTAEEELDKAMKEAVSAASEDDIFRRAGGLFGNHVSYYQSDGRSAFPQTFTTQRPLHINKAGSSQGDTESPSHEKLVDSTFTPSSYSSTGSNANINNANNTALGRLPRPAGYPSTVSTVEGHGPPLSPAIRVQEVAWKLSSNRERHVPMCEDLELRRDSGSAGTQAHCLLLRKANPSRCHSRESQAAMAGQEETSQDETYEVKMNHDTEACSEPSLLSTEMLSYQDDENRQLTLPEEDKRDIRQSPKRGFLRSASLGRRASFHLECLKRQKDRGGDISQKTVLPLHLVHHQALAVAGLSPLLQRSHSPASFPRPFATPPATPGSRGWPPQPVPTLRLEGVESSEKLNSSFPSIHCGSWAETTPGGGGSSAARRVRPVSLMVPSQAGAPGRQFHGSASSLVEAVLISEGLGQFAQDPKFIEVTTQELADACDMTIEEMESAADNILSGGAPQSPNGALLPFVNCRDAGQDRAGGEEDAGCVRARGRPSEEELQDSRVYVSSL
# Cav1.2, sequence (Q08289 whole entry partner): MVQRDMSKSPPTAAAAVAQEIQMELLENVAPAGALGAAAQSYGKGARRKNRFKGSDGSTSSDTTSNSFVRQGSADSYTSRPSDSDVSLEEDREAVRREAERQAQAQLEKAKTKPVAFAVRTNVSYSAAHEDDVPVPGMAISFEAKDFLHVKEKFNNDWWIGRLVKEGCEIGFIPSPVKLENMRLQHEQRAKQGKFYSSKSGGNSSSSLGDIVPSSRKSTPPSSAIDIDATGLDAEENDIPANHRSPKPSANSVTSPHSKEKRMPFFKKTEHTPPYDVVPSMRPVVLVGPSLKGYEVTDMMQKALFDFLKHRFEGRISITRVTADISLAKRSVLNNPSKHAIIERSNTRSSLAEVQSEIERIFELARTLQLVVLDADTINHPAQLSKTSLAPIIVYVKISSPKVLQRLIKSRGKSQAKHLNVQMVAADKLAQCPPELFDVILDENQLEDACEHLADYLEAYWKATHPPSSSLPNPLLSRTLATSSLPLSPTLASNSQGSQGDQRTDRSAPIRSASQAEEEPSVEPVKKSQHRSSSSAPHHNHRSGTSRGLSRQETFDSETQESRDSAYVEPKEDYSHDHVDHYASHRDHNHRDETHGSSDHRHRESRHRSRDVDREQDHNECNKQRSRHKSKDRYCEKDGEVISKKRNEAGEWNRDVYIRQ
# Cav1.2, sequence (P54289 25-956 partner limits assumed): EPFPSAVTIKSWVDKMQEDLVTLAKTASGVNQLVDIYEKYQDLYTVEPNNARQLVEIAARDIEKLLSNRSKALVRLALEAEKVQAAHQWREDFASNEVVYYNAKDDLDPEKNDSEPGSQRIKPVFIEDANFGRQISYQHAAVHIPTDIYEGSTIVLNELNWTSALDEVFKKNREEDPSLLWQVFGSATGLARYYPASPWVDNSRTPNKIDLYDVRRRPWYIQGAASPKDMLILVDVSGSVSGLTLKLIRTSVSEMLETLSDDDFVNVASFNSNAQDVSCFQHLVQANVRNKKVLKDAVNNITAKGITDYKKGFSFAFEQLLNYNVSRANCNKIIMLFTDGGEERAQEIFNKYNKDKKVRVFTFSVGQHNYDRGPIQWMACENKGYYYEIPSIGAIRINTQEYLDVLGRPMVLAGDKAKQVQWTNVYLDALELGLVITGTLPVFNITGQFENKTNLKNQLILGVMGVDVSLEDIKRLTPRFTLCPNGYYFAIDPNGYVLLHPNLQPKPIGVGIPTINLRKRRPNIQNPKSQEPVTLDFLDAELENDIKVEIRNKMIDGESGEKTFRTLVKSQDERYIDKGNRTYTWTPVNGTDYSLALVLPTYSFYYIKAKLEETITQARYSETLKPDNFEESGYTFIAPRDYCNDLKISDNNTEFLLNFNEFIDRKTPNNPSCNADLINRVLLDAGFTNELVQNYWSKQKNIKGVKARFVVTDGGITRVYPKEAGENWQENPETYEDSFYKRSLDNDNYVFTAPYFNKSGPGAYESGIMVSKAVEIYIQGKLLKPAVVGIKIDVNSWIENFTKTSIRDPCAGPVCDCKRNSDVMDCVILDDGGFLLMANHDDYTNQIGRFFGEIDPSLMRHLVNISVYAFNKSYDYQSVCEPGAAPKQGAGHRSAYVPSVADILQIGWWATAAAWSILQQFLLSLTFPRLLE
# Cav1.2, sequence (P54289 957-1103 partner limits assumed): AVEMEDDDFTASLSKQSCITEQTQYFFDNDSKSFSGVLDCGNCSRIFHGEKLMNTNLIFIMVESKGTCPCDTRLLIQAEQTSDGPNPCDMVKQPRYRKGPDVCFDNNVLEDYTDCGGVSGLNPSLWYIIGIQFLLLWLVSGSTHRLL
smiles,measurement,setting,value
"CO[C@H]1/C=C\C=C(/C)C(=O)NC2=CC(=O)C(NCCCCCC[P+](c3ccccc3)(c3ccccc3)c3ccccc3)=C(C[C@@H](C)C[C@H](OC)[C@H](O)[C@@H](C)/C=C(\C)[C@@H]1OC(N)=O)C2=O [Gamitrinib, 17-Demethoxy-17-((6-(triphenylphosphonio)hexyl)amino)geldanamycin]",reduction in mean body weights,Sprague-Dawley rats; 10 mg/kg/dose IV twice weekly,−5.5%
same,reduction in mean body weights,Sprague-Dawley rats; 25 mg/kg/dose IV twice weekly,−5.7%
same,urinalysis or ophthalmic changes,Sprague-Dawley rats; rats,No effects
same,Gamitrinib-related clinical observations,Sprague-Dawley rats; rats administered 10 mg/kg/dose,"inguinal swelling, piloerection, hypoactivity, and sensitivity to touch at the infusion site"
same,microscopic findings at the infusion site,Sprague-Dawley rats; rats administered 10 mg/kg/dose (both sexes),mixed cell inflammation at the catheter/infusion site
same,kidney histology,"Sprague-Dawley rats; rats, 25 mg/kg/dose IV, 25 mg/kg",slight kidney tubule degeneration/regeneration; also recorded: marked kidney tubule degeneration/regeneration; also recorded: tubular degeneration/regeneration
same,serum urea nitrogen (UN) and creatinine concentrations,"Sprague-Dawley rats; rats, 25 mg/kg/dose, 25 mg/kg",Minimally to mildly higher; also recorded: mild elevation of urea nitrogen
same,serum urea nitrogen,"Sprague-Dawley rats; rats, >10 mg/kg/dose",mild elevation
same,no observed adverse effect level (NOAEL),"Sprague-Dawley rats; rats, IV twice weekly 29 d",1 mg/kg/dose
same,severely toxic dose in 10% of the animals (STD 10),"Sprague-Dawley rats; rats, IV twice weekly 29 d",10 mg/kg/dose
same,Alterations in clinical chemistry parameters,"Sprague-Dawley rats; rats, highest Gamitrinib dose level tested","mildly to moderately higher neutrophil and platelet (Plts) counts, minimally prolonged partial thromboplastin time (PT), lower albumin, higher globulin, and alkaline phosphatase concentrations"
same,drug accumulation,"Sprague-Dawley rats; rats, Cmax and AUC0-24 similar on d 4 and d 29",no drug accumulation after multiple doses
same,Gamitrinib-related mortality,"Sprague-Dawley rats; toxicity rats, 10 mg/kg/dose",one male
same,Gamitrinib-related mortality,"Sprague-Dawley rats; toxicity rats, 25 mg/kg/dose",two males and one female
same,Gamitrinib-related mortality,"Sprague-Dawley rats; toxicokinetic rats, 10 mg/kg/dose",two toxicokinetic females
same,Gamitrinib-related mortality,"Sprague-Dawley rats; toxicokinetic rats, 25 mg/kg/dose",one toxicokinetic female
same,Cmax,[1]; [4],87.1 ng/mL
same,AUC(0-t),[1]; [4],174 ng·h/mL
same,Cmax,"[1]; 10 mg/kg/dose (STD 10), d 29",311 ng/mL
same,AUC(0-t),"[1]; 10 mg/kg/dose (STD 10), d 29",1300 ng·h/mL
same,Vd,"[1]; both sexes, in vivo, rats, 1, 10 or 25 mg/kg/dose IV twice weekly, d 4 and d 29, read-out: Vss",12.2 to 90 L/kg
same,inhibition at 10 µM,Cav1.2,12.2 ± 1.5%
same,inhibition at 10 µM,Nav1.5,22.3 ± 5.3%
same,elimination rate constant (k),"[2]; 0.5 μM, human liver microsomes",0.041
same,intrinsic clearance (CLint),"[2]; 0.5 μM, human liver microsomes",3.30 mL/min/g
same,half-life at 0.5 μM,"[2]; human, liver microsomes",16.7 min
same,IC50,[3],0.35 to 29 µM
